From patent US20260094269A1, “DIAGNOSIS AND MONITORING OF NEURODEGENERATIVE DISEASES” (MACQUARIE UNIVERSITY, priority 2019, published 2026)

Test system: monocytes
Experiment: Hyperspectral autofluorescence imaging of monocytes isolated from treated ALS / motor neuron disease patients (LDA projection, response score)
Type: in vivo, human
Source text: In the particular implementation presented here the “response vectors” were obtained using the following procedure. First, a discriminatory model was developed using a subset of the data based on two groups, the first group comprising the controls C1 C4 and two sets of patient data P2 and P6, while the second group comprising P1, P3, and P4. Second, all data from FIG. 4 was projected on the direction joining the centres of the two cell data clusters for the two groups defined above and a one-dimensional response vector was determined by a projection of each original cell vector from FIG. 4. These one-dimensional response vectors for all cells were presented in a box plot format (each symbol indicates a response vector for a different cell).
The box plots in FIGS. 5 and 6 comprise rectangles with three shades of grey. The thin line in the centre of the rectangle has the darkest shade of grey and represents the median value; the two stripes immediately adjacent to the centre line have the lightest shade of grey and represent the 95% confidence region (1.96×SEM); and the two stripes nearest to the ends of the rectangle have an intermediate shade of grey and represent the first standard deviation. If the light-grey regions of a cluster are not horizontally overlapping, one can be confident of having measured a difference. The values in the plot were shifted by a value of 1.3358, just for sake of placing the controls about zero, although this is an arbitrary shift and, in other examples, the values may be shifted by other amounts. Clusters may be classified according to their mean values: high values may be attributed to “diseased and unresponsive” state, intermediate values may be attributed to “normal”, and low values compared to normal may be interpreted as “drug affected”.
Blood samples were collected using Vacutainer® CPT™ Cell Preparation Tube (BD Australia, catalogue: 362760). 4 mls of whole blood from controls and MND patients were collected into the CPT tube via veinpuncture technique, using the standard technique for BD Vacutainer® Evacuated blood collection tubes. After collection, the tube/blood samples were centrifuged at room temperature (18-25° C.) in a horizontal rotor centrifuge for a minimum of 20 minutes at 1500 to 1800 RCF. After centrifugation, mononuclear cells and platelets located in a whitish layer (Buffy layer just under the plasma layer) were collected using a Pasteur pipette and transferred to a 15 mL size conical centrifuge tube.
Monocytes were isolated from collected buffy layer using a Pan Monocyte Isolation Kit, human (Miltenyi Biotec, catalogue: 130-096-537). The Monocyte Isolation Kit is an indirect magnetic labelling system for the isolation of untouched monocytes from human peripheral blood mononuclear cells (PBMCs). Non-monocytes, i.e. T cells, NK cells, B cells, dendritic cells and basophils, are indirectly magnetically labeled using a cocktail of biotin-conjugated antibodies against CD3, CD7, […], CD19, CD56, CD123 and Glycophorin A, and Anti-Biotin MicroBeads. Isolation of highly pure unlabelled monocytes is achieved by depletion of the magnetically labeled cells. […]

Structure (SMILES)	clustering of monocytes (autofluorescence spectral space) relative to healthy control (ALS Patient 1, before (T0) vs three weeks after (T1) start of treatment, FIG. 5(a))	response score (one-dimensional projection), longitudinal testing (ALS Patients 1 and 2, T0 vs T1-T3 over the course of treatment, FIG. 5(c))	position of treated patients' cell data in LDA projection (control space vs patient space) (FIG. 4, all patients and controls C1-C4)	position of patient cell data in LDA projection over consecutive tests (FIG. 4, patient (P5), Test1 to Test4)	range of response scores compared with healthy controls (eight other ALS patients (Patients 3-10), FIG. 6)
CN=C([S-])N/N=C(C)/C(C)=N/NC([S-])=NC.[Cu+2] [CuATSM, Copper ATSM]	normalised towards the healthy cells	statistically strong drug responses from time T1 onwards	appear in the control space or to the left hand side	progressively moving left (and less component 2) into the control/treated space	–
Nc1nc2ccc(OC(F)(F)F)cc2s1 [Riluzole]	–	–	–	–	much wider range of response scores than healthy controls
